The source of these data is article PMC7684578, “Isopedopeptins A–H: Cationic Cyclic Lipodepsipeptides from Pedobacter cryoconitis UP508 Targeting WHO Top-Priority Carbapenem-Resistant Bacteria” (ACS Chemical Biology, 2020).

Series [1] has as its system red blood cells from heparinized human blood. Put plainly: in vitro. The series is classed as cell-based. The following applies: 45 min, 100 µM, pH 7.4. The method, then:
positive control (Bortezomib) SI of <5%. The half maximal inhibitory concentration (IC50) was determined from log concentration-effect curves using non-linear regression analysis.
Frequency of resistance (FoR). For the determination of the FoR, the MIC of compound 2 was first evaluated on solid MH-agar medium prepared in 35 mm diameter plates. Each plate contained 4 mL agar with the appropriate amount of compound. Bacterial cultures were grown and prepared as described for the MIC assay. 13 µL of bacterial culture diluted to 0.5 MacFarland was inoculated into 1 mL 0.9% NaCl resulting in ~2 × 10^6 CFU/mL. 5 µL of this bacterial suspension was spotted onto the surface of each agar plate (~10^4 CFU/spot). Plates were sealed and incubated at 37°C for 18–20 hours. Agar MIC was recorded according to CLSI guidelines as the lowest concentration of […]
faint haze caused by the inoculum. Then 9 cm plates were prepared with 25 mL MHII agar medium containing 4 × or 8 × solid MIC concentrations of test compounds and seeded with 100 µL of a bacterial preparation, concentrated by centrifugation from overnight cultures and resuspended in 0.9% NaCl, corresponding to 108 CFU and 109 CFU per plate, and spread on the agar using 4–5 glass beads of 4 mm diameter. Since CFU were evaluated using the McFarland turbidity standard, the exact CFU number plated was evaluated by plating of serial dilutions of each inoculum preparation on MHII agar plates. Plates were incubated at 37°C and colonies were counted at 24 h and 48 h post-plating. The frequencies of resistance were then calculated by counting the number of validated resistant colonies growing on antibiotic preparations divided by the evaluated number of CFU in the inoculum.
Hemolysis assay. Compounds were evaluated for hemolytic activity using red blood cells from heparinized human blood. Red blood cells (RBC) were washed three times in Tyrode buffer (130 mM NaCl, 4 mM KCl, 2.8 mM NaOAc, 1 mM MgCl2, 10 mM HEPES, 10 mM glucose, 1 mM CaCl2, adjusted to pH 7.4) and resuspended in the same buffer. Final concentrations in the hemolysis assay were: 100 µM compound, 1% DMSO, and 50% RBC, assayed in a 200 µL volume in a microtiter plate. The mixture was incubated at 37 °C for 45 min with shaking (250 rpm). After incubation, RBCs were removed by centrifugation (1000 × g for 10 min), 100 µL clear plasma was transferred to a fresh microtiter plate, and the amount of hemoglobin measured using a spectrophotometer at 540 nm. The […]
complete lysis control contained 2% Triton X-100 (in Tyrode buffer) instead of compound; the negative control contained Tyrode buffer but no compound. Percent hemolysis was calculated as:
[Abs compound] - [Abs negative control] / [Abs complete lysis control] - [Abs negative control] ×
100. Values greater than 1% hemolysis at 100 µM were regarded as a red flag.
Bacterial membrane permeabilization assay. Liposomes were manufactured and permeabilization assayed as described previously.8 Briefly, dry lipid films of E. coli polar lipid extract were formed on round-bottom flask walls. This was achieved by dissolving lipids in chloroform and evaporating the solvent under agitation and nitrogen gas flow, followed by incubation in vacuum chamber. Lipid films were re-suspended by 30 min stirring (E. coli) at 55°C in an aqueous solution of 100 mM 5(6)-carboxyfluorescein in 10 mM Tris buffer (set to pH 7.4 at 37°C). Suspensions were subjected to repeated extrusion through a 100 nm pore size polycarbonate membrane in order to reduce multilamellar structures and polydispersity. Un-trapped carboxyfluorescein was removed by gel filtration. Membrane permeability was measured by monitoring carboxyfluorescein efflux from the liposomes to the external low concentration environment, resulting in loss of self-quenching and an increased fluorescence signal. The 96-well plates were prepared with a 2-fold serial dilution of the samples in Tris buffer, as well as negative controls (background) and 0.16% Triton X-100 (maximum […]
leakage). […]

For series [2], the system named is P. aeruginosa. Kind of series: MIC determined at the Public Health Agency of Sweden (EUCAST). It counts as cell-based, Pseudomonas aeruginosa. The following applies: for MIC: Pseudomonas aeruginosa, Public Health Agency of Sweden. The method, then: (§1) 10^8 CFU/mL) with turbidity assessed using a Sensititre Nephelometer (Trek Diagnostics Systems Ltd, UK). 50 µL of this bacterial suspension was transferred to 10 mL of MHII broth to give a final bacterial concentration ≅ 5 × 10^5 CFU/mL (acceptable range 3 – 7 × 10^5 CFU/mL). 50 µL of bacterial suspension was pipetted into each well (except the medium control well, where 50 µL MHII was pipetted). Final volume in each well was 100 µL. Plates were covered and incubated without shaking for 18-20 h at 35 °C ± 2 °C. MIC was read visually, as complete inhibition of growth by the unaided eye, using the medium-only wells as the control. Each compound was assayed at least in duplicate.
(§2) Additionally, the MIC for compound 2 against clinical carbapenem-resistant strains of A. baumannii […]
(§3) determined at the Public Health Agency of Sweden (according to EUCAST recommendations).
(§4) In vitro Cytotoxicity Determination. In vitro cytotoxicity was determined by a fluorometric microculture cytotoxicity assay,7 based on hydrolysis of fluorescein diacetate to fluorescein by cells with intact plasma membranes. In short, HepG2 cells (hepatocellular carcinoma cells, ATCC), in Eagle's Minimum Essential Medium (ATCC) supplemented with 10 % fetal bovine serum, penicillin/streptomycin (100 U/100 µg/mL) and 2 mM L-glutamine, were seeded in 384-well assay plates at a density of 1000 cells/well. The cells were incubated over night at 37°C and compounds in 10 mM DMSO were added, to obtain final concentrations 64 µM – 0.25 µM in two-fold dilutions.
(§5) After incubation for 72 h at 37°C, the cells were pelleted and washed. Fluorescein diacetate was added (1 µL, 0.5 mg/mL) and the fluorescence [485 nm(exc)/530 nm(em.)] was measured after 50 min at 37°C. Bortezomib (2 µM) was used as positive control and dose response testing of doxorubicin (top concentration 2 µM) was performed repeatedly to follow assay performance over time. Cytotoxicity was assessed after 72 h with cell survival presented as survival index (SI, %) defined as fluorescence in test wells in percent of control cultures with blank values subtracted.
(§6) Criteria for a successful assay include a signal-to-noise ratio in control cultures >10, CV <30% and a 7 Lindhagen, E., Nygren, P., and Larsson, R. (2008) The fluorometric microculture cytotoxicity assay. Nat.

Series [3] relates to A. baumannii. Described as above. As to conditions: Acinetobacter baumannii. The series is classed as cell-based. The method, then:
as §1, §2, §3, §4, §5, §6

In series [4] the test system is E. coli. The description is as above. The series is classed as cell-based. The following applies: Escherichia coli. The method, then:
as §1, §2, §3, §4, §5, §6

Series [5] is described as follows: Bacterial membrane permeabilization assay (carboxyfluorescein leakage from liposomes). The series is classed as biochemical. As to conditions: large unilamellar liposomes from E. coli phospholipid extract, 45 min, 37 °C.

Molecules are shown by their SMILES. Values after ≈ are worked out from the molar mass of the structure shown. Read-outs that look alike come from different tables or passages of the source. Starred links: 1 amine or outer side, 2 acyl side, 3 side chain; linkers in the order of their positions; H or OH if unused. Positions of bridges follow the written chain, without caps; N, C: chain ends. Non-standard residues stand in square brackets, D forms with d. Residues, ends and D or L forms follow the SMILES beside them. X5 = CC(C)CCCCCCC[C@H](CC(=O)[*:1])O[*:2]; X2 = CCCCCCC[C@H](CC(=O)[*:1])O[*:2]; Val(3-OH) = CC(C)(O)[C@H](N)C(=O)O; X1 = C/C=C(/N[*:1])C(=O)[*:2]; Dab = NCC[C@H](N)C(=O)O; Dap = NC[C@H](N)C(=O)O

As for `C/C=C1/NC(=O)[C@H](CCN)NC(=O)[C@H](CC(C)C)NC(=O)[C@H](CN)NC(=O)C[C@@H](CCCCCCC)OC(=O)[C@H](CC(=O)O)NC(=O)[C@H](C(C)(C)O)NC(=O)[C@@H](Cc2ccccc2)NC(=O)[C@H](CN)NC(=O)[C@H]([C@@H](C)O)NC1=O` [Compound 2, isopedopeptin B] ([Dap]L[Dab][X1]T[Dap][dF][Val(3-OH)]D; linker N-C via X2), the “Hemolysis (%)” value in series [1] was 0.8%. For the same molecule, the MIC in series [2] (ATCC27853, WT, read-out: MIC P. aeruginosa ATCC27853) is 4 µg/mL (≈ 3.58 µM); in series [2] (CARBA, read-out: MIC P. aeruginosa PS826) it was 4 µg/mL (≈ 3.58 µM); in series [2] (CARBA, read-out: MIC P. aeruginosa PS992) it was 4 µg/mL (≈ 3.58 µM); in series [3] (CARBA, Public Health Agency of Sweden, read-out: MIC A. baumannii A219), 2 µg/mL (≈ 1.79 µM); in series [3] (CARBA, Public Health Agency of Sweden, read-out: MIC A. baumannii A250) it was 2 µg/mL (≈ 1.79 µM); in series [3] (summary in text over strains, strains not named, read-out: MIC carbapenem-resistant A. baumannii), ≥ 1 µg/mL. Further, the minimum inhibitory concentration (MIC) is 1 µg/mL (≈ 0.895 µM) in series [4] (ATCC25922, WT, Public Health Agency of Sweden, read-out: MIC E. coli ATCC25922); 2 µg/mL (≈ 1.79 µM) in series [4] (CARBA, Public Health Agency of Sweden, read-out: MIC E. coli EC4129); 1 µg/mL (≈ 0.895 µM) in series [4] (CARBA, Public Health Agency of Sweden, read-out: MIC E. coli EC4163); ≥ 2 µg/mL in series [4] (summary in text over strains, strains not named, read-out: MIC carbapenem-resistant E. coli). Further, the “MIC carbapenem-resistant P. aeruginosa” value in series [2] (summary in text over strains, strains not named) is ≥ 4 µg/mL.

In series [5], `C/C=C1/NC(=O)[C@H](CCN)NC(=O)[C@H](CC(C)C)NC(=O)[C@H](CN)NC(=O)C[C@@H](CCCCCCCC(C)C)OC(=O)[C@H](CC(=O)O)NC(=O)[C@H](C(C)(C)O)NC(=O)[C@@H](Cc2ccccc2)NC(=O)[C@H](CN)NC(=O)[C@H]([C@@H](C)O)NC1=O` [Compound 6, Isopedopeptin F] ([Dap]L[Dab][X1]T[Dap][dF][Val(3-OH)]D; linker N-C via X5) showed an EC50 of 2000 nM. That is a single-digit micromolar value.
